Details: for log10 BCF / log10 biotransformation half-life (days): fish

C1CC2CCCC(C1)C2
boiling point: 170 °C | melting point: 146 °C

Clc1cc2ccccc2c2ccccc12
log10 BCF: 3.49 | log10 biotransformation half-life (days): 1.8

c1ccc2n[nH]nc2c1
ready biodegradability: not readily biodegradable

O=C(Nc1ccc2c(O)cc(S(=O)(=O)O)cc2c1)Nc1ccc2c(O)cc(S(=O)(=O)O)cc2c1
log10 BCF: 0.26

CN1CCN(C2=Nc3ccccc3Oc3ccc(Cl)cc32)CC1
melting point: 110 °C

CC1(C)[C@H]2CC[C@]1(C)[C@H](O)C2
boiling point: 210 °C

Clc1ccc(C/C(=C\CN2CCCC2)c2ccccc2)cc1
melting point: 48.5 °C

Nc1c(Br)cc(O)c2c1C(=O)c1ccccc1C2=O
ready biodegradability: not readily biodegradable

C=CCCCC(=O)O
boiling point: 203 °C | melting point: -37 °C

COC(=O)Cc1ccccc1
boiling point: 216 °C

Cc1c(C)c(O)c(C)c(C)c1O
melting point: 233 °C

FCCF
boiling point: 30.7 °C | log10 vapour pressure (mmHg): 2.79

NS(=O)(=O)c1ccc(SCCCO)c([N+](=O)[O-])c1
melting point: 163 °C

CCOC(=O)C(c1c(O)c2ccccc2oc1=O)c1c(O)c2ccccc2oc1=O
melting point: 154 °C

CCN1CCN(C(=O)N[C@@H](C(=O)N[C@@H]2C(=O)N3C(C(=O)O)=C(CSc4nnnn4C)CS[C@H]23)c2ccc(O)cc2)C(=O)C1=O
melting point: 169 °C

Oc1c(Br)cccc1Br
boiling point: 255 °C | melting point: 56.5 °C

CC1=NN(c2ccc(C)cc2)C(=O)C1
melting point: 138 °C

c1ccc2c(c1)Oc1ccccc1O2
log10 vapour pressure (mmHg): -3.38 | melting point: 122 °C

CCOP(=O)(NC(C)C)Oc1ccc(SC)c(C)c1 (configuration not stated)
log10 Koc (L/kg): 2.51 | log10 vapour pressure (mmHg): -6 | melting point: 49 °C

C=CC(C)(C)C(=O)O
boiling point: 185 °C | melting point: -6 °C

CC(C)C[C@@H](NC(=O)[C@@H](O)[C@H](N)Cc1ccccc1)C(=O)O
melting point: 234 °C

CC(=O)CC(C)(C)C
boiling point: 126 °C | melting point: -64 °C

C#CC(C)(CC)OC(N)=O (configuration not stated)
melting point: 55.8 °C

CC1=CC(=O)CC1
boiling point: 158 °C

O=Cc1ccc(Cl)c(Cl)c1
boiling point: 248 °C | melting point: 44 °C

C[N+](C)(C)CCOC(=O)CCC(=O)OCC[N+](C)(C)C.[I-].[I-]
melting point: 244 °C

CC1=CCC(C)C1 (configuration not stated)
boiling point: 93.2 °C

C#CCCl
boiling point: 58 °C

CCC1(c2ccccc2)C(=O)NC(=O)N(C)C1=O (configuration not stated)
melting point: 176 °C

C[C@]12CC[C@@H](O)C[C@H]1CC[C@@H]1[C@@H]2C(=O)C[C@@]2(C)[C@H]1CC[C@]2(O)C(=O)CO
melting point: 214 °C

CCCCC(C)c1ccccc1 (configuration not stated)
boiling point: 208 °C

COc1cc(CCO)ccc1O
melting point: 41 °C

ICCCCCI
melting point: 9 °C

O=C(O)c1c(Cl)c(Cl)c(Cl)c(Cl)c1Cl
melting point: 209 °C

ClC1=C(Cl)C2(Cl)C=CC1(Cl)C2(Cl)Cl
log10 BCF: 3.81

COP(=O)(OC)SCn1c(=O)oc2cc(Cl)cnc21
log10 vapour pressure (mmHg): -7.44 | melting point: 89 °C

CC(=O)c1cc(C)ccc1C
boiling point: 232 °C | melting point: -18.1 °C

CCCCF
boiling point: 32.5 °C | log10 vapour pressure (mmHg): 2.76 | melting point: -134 °C

CC(=O)OC(C)C#N (configuration not stated)
boiling point: 172 °C | melting point: -75 °C

O=[N+]([O-])c1cccc(Br)c1
boiling point: 256 °C | log10 vapour pressure (mmHg): -1.15 | melting point: 56 °C

N#CC(Br)(Br)C(N)=O
log10 vapour pressure (mmHg): -3.05 | melting point: 124 °C | ready biodegradability: not readily biodegradable

O=C1C(=O)c2cccc3cccc1c23
melting point: 261 °C

Oc1cccc2cccnc12
boiling point: 267 °C | log10 vapour pressure (mmHg): -2.78 | melting point: 75.5 °C | ready biodegradability: not readily biodegradable

CC[N+](CC)(CC(=O)Nc1c(C)cccc1C)Cc1ccccc1.O=C([O-])c1ccccc1
melting point: 168 °C

CCC(Br)(CC)C(N)=O
melting point: 67 °C

CN(C)C(=O)c1ccccc1
log10 Koc (L/kg): 1.6 | melting point: 44 °C

Oc1cc2ccccc2cc1O
melting point: 162 °C

CC[C@H](O)C(C)C
boiling point: 126 °C

CC1CCNCC1
boiling point: 130 °C

CCCCc1cccnc1
boiling point: 206 °C

C=CC(CC)CCC (configuration not stated)
boiling point: 110 °C

CCCCCCCCCC(N)=O
melting point: 108 °C

CN(C)CCn1cnc2c1c(=O)n(C)c(=O)n2C
melting point: 95 °C

CCC(C)CC(C)N (configuration not stated)
boiling point: 132 °C

FC(F)(F)COCC(F)(F)F
boiling point: 63.9 °C | log10 vapour pressure (mmHg): 2.19

CN(C)C(=O)NC1CCCCCCC1
melting point: 138 °C

Cc1cc(Cl)n(C)n1
boiling point: 158 °C

Nc1c([N+](=O)[O-])ccc(Oc2ccccc2)c1Cl
log10 vapour pressure (mmHg): -6.92 | melting point: 81.5 °C

COc1c(C(C)C)oc2cc3oc(=O)ccc3cc12
melting point: 85 °C

Clc1cc(Cl)c(Cl)c(-c2ccccc2Cl)c1
log10 biotransformation half-life (days): 2.8

CC1(C)CC[C@]2(C(=O)O)[C@H](O)C[C@]3(C)C(=CC[C@@H]4[C@@]5(C)CC[C@H](O)[C@@](C)(C=O)[C@@H]5CC[C@]43C)[C@@H]2C1
melting point: 294 °C

CC1=Cc2ccccc2C1
boiling point: 208 °C | log10 biodegradation half-life (days): 0.477 | melting point: 80 °C

CCCCCCCCCCCCC1CCCCC1
boiling point: 331 °C | melting point: 12.5 °C

C=CCC(O)CC=C
boiling point: 151 °C

Nc1ccc(F)c([N+](=O)[O-])c1
melting point: 97.5 °C

CCOC(=O)C(=O)Cl
boiling point: 137 °C | log10 vapour pressure (mmHg): 0.882

CCCCOC(=O)C(C)Oc1ccc(Oc2ccc(C(F)(F)F)cn2)cc1 (configuration not stated)
log10 Koc (L/kg): 3.62 | log10 vapour pressure (mmHg): -6.5 | melting point: 9 °C

O=C(O)c1cccc([N+](=O)[O-])c1Cl
melting point: 184 °C

c1ccc2c(c1)ccc1ncccc12
boiling point: 352 °C | log10 Koc (L/kg): 4.64 | log10 vapour pressure (mmHg): -4.25 | melting point: 94 °C

OCC1O[C@@H](Oc2ccccc2)[C@H](O)[C@@H](O)[C@H]1O (some centres not stated)
melting point: 166 °C

CCOC(Cl)CCl (configuration not stated)
boiling point: 145 °C

N=C(N)NC(=N)NCCc1ccccc1
melting point: 176 °C

OCCN(CCO)CCO
boiling point: 335 °C | log10 vapour pressure (mmHg): -5.44 | melting point: 20.5 °C | ready biodegradability: not readily biodegradable | log10 BCF: 0.59

Nc1c(F)c(F)c(C(F)(F)F)c(F)c1F
boiling point: 186 °C

C=COCC(CC)CCCC (configuration not stated)
melting point: -100 °C | ready biodegradability: not readily biodegradable | log10 BCF: 2.78

O=C1NC(=O)C(c2ccccc2)(c2ccccc2)N1
melting point: 296 °C | ready biodegradability: not readily biodegradable

COc1ccc(C=O)c(OC)c1
boiling point: 290 °C | melting point: 72 °C

OC1CCCCCCCCCCC1
log10 Henry constant (atm·m³/mol): -5.53 | melting point: 77.5 °C

CCOC(=O)CC(=O)OCC
boiling point: 200 °C | log10 vapour pressure (mmHg): -0.57 | melting point: -50 °C | ready biodegradability: readily biodegradable

CC#CCCCC
boiling point: 112 °C

COC(=O)c1c(C(F)F)nc(C(F)(F)F)c(C2=NCCS2)c1CC(C)C
log10 vapour pressure (mmHg): -5.65 | melting point: 78 °C

NS(=O)(=O)c1ccc(CCCCO)cc1
melting point: 78.5 °C

NC[C@H](O)c1ccccc1
melting point: 56.5 °C

Cc1cnc(C(=O)O)c[n+]1[O-]
melting point: 178 °C

CCCNC(C)C(=O)Nc1ccccc1C (configuration not stated)
melting point: 37.5 °C

CCC(=O)O[C@](Cc1ccccc1)(c1ccccc1)[C@H](C)CN(C)C
melting point: 75.5 °C

CCCCCC(=O)CC(C)=O
melting point: -18 °C

OC1c2ccccc2-c2ccccc21
melting point: 154 °C

CCOC(=O)CCC(=O)CC1(O)C2(Cl)C3(Cl)C4(Cl)C(Cl)(Cl)C5(Cl)C3(Cl)C1(Cl)C5(Cl)C42Cl (configuration not stated)
melting point: 91 °C

From the OPERA property sets (Mansouri et al. 2018)
